Laboratory results as given in ChEMBL document CHEMBL6109041, “Docking and structure activity relationship studies of potent and selective thiazolidinethione GSK-3 inhibitors” (Bioorg Med Chem Lett, 2025).

Columns and labels:
[1] = molecular target: T1, Glycogen synthase kinase-3 alpha (Homo sapiens, UniProt P49840); test: Inhibition of GSK3alpha (unknown origin)
Target sequence in this assay (P49840 whole entry): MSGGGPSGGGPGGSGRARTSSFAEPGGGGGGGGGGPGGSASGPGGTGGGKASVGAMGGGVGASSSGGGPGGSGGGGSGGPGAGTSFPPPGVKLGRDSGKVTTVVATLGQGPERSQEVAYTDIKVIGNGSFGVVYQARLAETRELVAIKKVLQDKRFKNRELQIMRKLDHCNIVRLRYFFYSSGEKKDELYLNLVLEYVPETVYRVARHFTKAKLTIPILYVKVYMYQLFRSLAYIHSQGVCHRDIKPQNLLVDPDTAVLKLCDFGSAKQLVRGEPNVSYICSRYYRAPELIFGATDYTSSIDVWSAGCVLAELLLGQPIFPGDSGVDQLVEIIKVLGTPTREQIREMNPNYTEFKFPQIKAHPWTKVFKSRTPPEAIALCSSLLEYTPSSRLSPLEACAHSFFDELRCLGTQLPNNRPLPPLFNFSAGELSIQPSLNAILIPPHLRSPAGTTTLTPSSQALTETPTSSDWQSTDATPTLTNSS

[2] = molecular target: T2, Glycogen synthase kinase-3 beta (Homo sapiens, UniProt P49841); test: Inhibition of GSK3beta (unknown origin)
Target sequence in this assay (P49841 whole entry): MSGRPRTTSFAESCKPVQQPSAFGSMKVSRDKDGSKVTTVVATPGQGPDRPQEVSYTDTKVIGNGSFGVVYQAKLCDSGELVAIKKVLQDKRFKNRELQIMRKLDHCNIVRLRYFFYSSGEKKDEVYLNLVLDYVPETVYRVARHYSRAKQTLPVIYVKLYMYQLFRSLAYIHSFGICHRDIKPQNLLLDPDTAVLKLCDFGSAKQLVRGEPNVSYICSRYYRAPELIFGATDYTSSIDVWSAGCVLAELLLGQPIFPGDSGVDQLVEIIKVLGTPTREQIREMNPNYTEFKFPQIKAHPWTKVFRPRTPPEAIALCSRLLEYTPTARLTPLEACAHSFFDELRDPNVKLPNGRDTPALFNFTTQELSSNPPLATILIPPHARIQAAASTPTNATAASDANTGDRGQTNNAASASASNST

[3] = molecular target: T2, Glycogen synthase kinase-3 beta; test: Inhibition of GSK3beta (unknown origin) at 2 uM relative to control
Target sequence in this assay (P49841 whole entry, looked up): as the sequence (P49841 whole entry) above

[4] = molecular target: T1, Glycogen synthase kinase-3 alpha; test: Inhibition of GSK3alpha (unknown origin) at 2 uM relative to control
Target sequence in this assay (P49840 2-483 limits assumed): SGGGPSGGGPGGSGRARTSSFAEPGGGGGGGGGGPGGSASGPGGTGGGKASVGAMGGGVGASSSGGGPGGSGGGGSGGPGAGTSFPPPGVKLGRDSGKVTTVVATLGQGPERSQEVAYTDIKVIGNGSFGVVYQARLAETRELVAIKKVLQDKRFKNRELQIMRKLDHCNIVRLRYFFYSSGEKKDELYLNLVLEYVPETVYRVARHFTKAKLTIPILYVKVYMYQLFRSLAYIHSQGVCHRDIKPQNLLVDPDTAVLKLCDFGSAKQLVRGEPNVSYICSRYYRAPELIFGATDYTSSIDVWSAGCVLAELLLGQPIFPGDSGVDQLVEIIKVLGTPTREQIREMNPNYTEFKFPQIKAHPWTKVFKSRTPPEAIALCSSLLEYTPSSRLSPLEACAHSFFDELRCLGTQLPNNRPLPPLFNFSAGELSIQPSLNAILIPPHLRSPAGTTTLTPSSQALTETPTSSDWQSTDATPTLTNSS

Structure (SMILES) | IC50 [1] [µM] | IC50 [2] [µM] | inhibition [3] [%] | inhibition [4] [%]
OC1(c2ccccc2)CSC(=S)N1Cc1ccccn1 (stereo not drawn) | > 10 | > 10 |  | 
OC1(c2ccccc2)CSC(=S)N1Cc1ccccc1 (stereo not drawn) | > 10 | > 10 |  | 
OC1(c2ccccc2)CSC(=S)N1Cc1ccncc1 (stereo not drawn) | 0.0182 | 0.0122 | > 90 | > 90
